The source of these data is ChEMBL document CHEMBL4422617, “Recent advances in the discovery of small molecules targeting glioblastoma” (Eur J Med Chem, 2019).

The subject of assay [1] is U-87 MG. In words: Cytotoxicity against human U87 cells expressing EGFRvIII after 72 hrs by AlamarBlue assay. It is filed as functional, cell-based, U-87MG ATCC. Background: Resazurin is reduced to fluorescent resorufin, in cell work by metabolically active cells.
Another assay concerns U-251. In words: Cytotoxicity against human U251 cells after 72 hrs by AlamarBlue assay. Particulars: U-251, 72 h. It is filed as functional, cell-based.
The test system of the next assay is GBM. In words: Cytotoxicity against GBM cells derived from human patient after 72 hrs by AlamarBlue assay. It is filed as functional, cell-based.
For assay [2], the system named is U-87 MG. In words: Cytotoxicity against human U87 cells after 72 hrs by AlamarBlue assay. It is filed as functional, cell-based, U-87MG ATCC.

For orientation: EC50 means the concentration needed to bring the measured effect to its halfway point. Low readings indicate greater potency, high ones weaker potency.

For `O=C(CCCc1ccc(-c2cc3ccccc3cn2)cc1)Nc1ccc(O)cc1`, the EC50 is 600 to 1300 nM with U-87 MG [1], 600 to 1300 nM in the assay on U-251, 540 nM in the assay with GBM and 600 to 1300 nM in the assay on U-87 MG [2].
